From US20260144784A1, “COMPOSITION FOR PREVENTING OR TREATING MELAS SYNDROME, CONTAINING ISOPQUINOLINE DERIVATIVE AS ACTIVE INGREDIENT” (ALTMEDICAL CO., LTD., priority 2022, published 2026) come the findings set out here.

Data set [1] concerns mitochondrial membrane potential. Nature of the data set: mitochondrial membrane potential, TMRM assay. It counts as cell-based. The settings on record: CD1-012 10 μM or 15 μM, CCCP 10 μM, 24 hours. On the procedure:
(§1) It was confirmed whether the isoquinoline derivative according to the present invention induces mitochondrial dysfunction, similar to CCCP. To this end, the CD1-012 (10 μM or 15 μM) and CCCP (10 μM) were treated for 24 hours, and the mitochondrial membrane potential and mitochondrial reactive oxygen species (ROS) levels in each sample were analyzed. Mitochondrial membrane potential was analyzed using the TMRM (tetramethylrhodamine methyl ester) assay, and mitochondrial ROS levels were analyzed using the MitoSOX assay.

Data set [2] concerns mitochondrial reactive oxygen species (ROS). Kind of data set: mitochondrial reactive oxygen species, MitoSOX assay. It counts as cell-based. The following applies: CD1-012 10 μM or 15 μM, CCCP 10 μM, 24 hours. Here is the method:
as §1

In data set [3] the test system is PINK1 knockdown cell line (shPINK1). Kind of data set: mitophagy activity by FACS in PINK1 knockdown BEAS-2B cell line. It counts as cell-based, human. The settings on record: CCCP 10 μM, CD1-012 15 μM, 18 hours. Here is the method:
In this example, it was confirmed whether the mitophagy activation function of the isoquinoline derivative according to the present invention is dependent on the PINK1-Parkin pathway. To this end, after a BEAS-2B cell line, in which PINK1 was knocked down using short hairpin RNA (shRNA), was treated with CCCP (10 μM) of Comparative Example 1 or CD1-012 (15 μM) for 18 hours, the mitophagy activity of each sample was analyzed using flow cytometry (FACS).
Background: Flow cytometry measures light scatter and fluorescence of single cells or particles in a stream.

Data set [4] relates to BEAS-2B cell line. Nature of the data set: mitophagy activity, mt-Keima fluorescent protein in BEAS-2B cells (FACS, confocal microscope, mito-YFP). It counts as cell-based, human. The following applies: BEAS-2B mt-Keima. Here is the method:
To analyze the mitophagy-promoting activity effect of the CD1-012 synthesized in the Example 1, the BEAS-2B cell line, which is a human normal lung cell line, was induced to express the mt-Keima fluorescent protein. Following this, the CD1-012 (15 μM) and the compound of Comparative Example 1, CCCP (10 μM), were treated for 24 hours. After the treatment, the mitophagy activity of each sample was measured, and the results were represented in FIGS. 1A to 1C.
Specifically, FIG. 1A represents the analysis results using flow cytometry (FACS) (treatment of CD1-012 at 15 μM for 24 hours), FIG. 1B represents the analysis results using a confocal microscope (treatment of CD1-012 at 15 μM for 18 hours), and FIG. 1C represents the measurement results of the quantitative changes in the mitochondria using a fluorescent protein, mito-YFP, which includes a targeting sequence to transport protein to the mitochondria (treatment of CD1-012 at 20 μM for 24 hours).
It was confirmed whether CD1-012 synthesized in Example 1 promotes mitophagy activity in a concentration- and time-dependent manner. To this end, the CD1-012 was treated at various concentrations or at a fixed concentration (15 μM) for different treatment durations in the BEAS-2B cell line expressing mt-Keima, and mitophagy activity was measured using a flow cytometer.
(§2) It was confirmed whether CD1-012 synthesized in Example 1 specifically increases only mitophagy activity. To this end, the BEAS-2B cell line expressing mt-Keima was treated with CD1-012 (15 μM) or Comparative Example 1 (CCCP, 10 μM) for 18 hours, and mitophagy activity was analyzed using a confocal microscope. Additionally, to measure autophagy activity, the BEAS-2B cell line expressing Keima fluorescent protein was incubated in Hanks' balanced salt solution (HBSS) for 3 hours to induce a starvation condition (starv.), and the results were compared with samples treated with CD1-012 (15 μM) for 18 hours using a confocal microscope.
To this end, the human normal lung cell line BEAS-2B, expressing mt-Keima fluorescent protein, was treated with CD1-012, Comparative Example 2 (palmatine), or Comparative Example 3 (berberine) at various concentrations, and the mitophagy-inducing activity of each sample was compared.

The subject of another data set is SH-SYSY cell line. Kind of data set: mitophagy activity by flow cytometry in SH-SY5Y cells expressing mt-Keima. It counts as cell-based, human. The following applies: FACS. On the procedure:
(§3) It was confirmed whether CD1-012 synthesized in Example 1 increases mitophagy activity in various cell lines. To this end, CD1-012 and Comparative Example 1 (CCCP) were treated in the SH-SYSY cell line, a human neuroblastoma cell line expressing mt-Keima fluorescent protein, and in the HeLa-Parkin cell line, a HeLa cervical cancer cell line expressing Parkin (E3 ligase). Following this treatment, the mitophagy activity of each sample was analyzed using flow cytometry (FACS), and the results are shown in FIGS. 2A to 2B.

Another data set concerns HeLa-Parkin cell line. Kind of data set: mitophagy activity by flow cytometry in HeLa-Parkin cells. It counts as cell-based. The following applies: FACS. Here is the method:
as §3

The subject of data set [5] is BEAS-2B cell line. Kind of data set: autophagy activity, Keima fluorescent protein in BEAS-2B cells (confocal microscope). It counts as cell-based, human. The settings on record: BEAS-2B Keima; 15 μM 18 hours, FIG. 4B. Here is the method: as §2
Data set [6] deals with 143B MELAS cell line. Kind of data set: mitophagy activity, mt-Keima in 143B MELAS cell line (FACS, confocal microscope). It counts as cell-based. The settings on record: 143B MELAS mt-Keima. The text has this: (§4) In the previous example, it was confirmed that mitochondrial dysfunction occurs in the MELAS syndrome cell line, and in the present example, it was confirmed whether the compound according to the present invention can promote mitophagy in the MELAS syndrome cell line. In order to verify the mitophagy activity-promoting effect of the CD1-012 compound in the 143B MELAS cell line, a mitophagy quantification method using the mt-Keima fluorescent protein, which enables quantitative measurement of mitophagy activity in live cells, was used (2015 Mol Cell, 60 (4): 685-696.doi: 10.1016/j.molcel.2015.10.009:2018 J Vis Exp. (138): 58099 doi: 10.3791/58099.). Specifically, mt-Keima fluorescent protein was expressed in the 143B MELAS cell line, and after treatment with CD1-012 at various concentrations, mitophagy activity was measured using a mitophagy activity measurement method using a fluorescence-activated cell sorter (FACS) or a confocal microscope. […] Additionally, as a result of investigating the reduction of mitochondrial proteins associated with increased mitophagy activity by Western blot, it was confirmed that the levels of SDHA and COX4 proteins decreased when treated with CD1-012 at concentrations of 10 μM or higher (FIG. 9C).

Data set [7] deals with 143B MELAS cell line. Kind of data set: mitochondrial protein levels by Western blot in MELAS cell line. The following applies: FIG. 9C. It counts as cell-based.
Description: as §4

For data set [8], the system named is 143B MELAS cell line. Nature of the data set: ATP synthesis in 143B MELAS cell line. It counts as cell-based. The settings on record: 40 μM for 24 hours, measured 2 days later. On the procedure:
As confirmed through the previous examples, the compound according to the present invention can promote mitophagy in MELAS syndrome cells, and in the present example, it was confirmed whether the compound can improve mitochondrial dysfunction in MELAS syndrome cells. For this purpose, CD1-012 (40 μM) was treated in the 143B MELAS cell line for 24 hours, and ATP synthesis was measured 2 days later.

Data set [9] concerns MELAS syndrome patient-derived cells. Kind of data set: mitochondrial protein levels (SDHA, SDHB) by Western blot in MELAS syndrome patient-derived cells. It counts as cell-based, human. The settings on record: 24 hours. Here is the method:
As confirmed in the previous example, mitochondrial dysfunction is observed in MELAS syndrome patient-derived cells, and in the present example, it was confirmed whether the compound according to the present invention can promote mitophagy activity in MELAS syndrome patient-derived cells. CD1-012 was treated in MELAS syndrome patient-derived cells at concentrations of 20 μM or 40 μM for 24 hours, and the levels of mitochondrial proteins SDHA and SDHB were analyzed by Western blot.
On the technique in general: In western blotting, separated proteins are transferred to a membrane and probed.

For data set [10] the test system is unchanged. Nature of the data set: ATP levels in MELAS syndrome patient-derived cells. It counts as cell-based, human. The following applies: 40 μM for 24 hours, measured 2 days later, untreated 76%. On the procedure: In this example, it was confirmed whether the compound according to the present invention can improve mitochondrial dysfunction in MELAS syndrome patient-derived cells. CD1-012 was treated in MELAS syndrome patient-derived cells at a concentration of 40 μM for 24 hours, and ATP levels were measured 2 days later. As a result, it was confirmed that the ATP levels in MELAS syndrome patient-derived cells, which had decreased to 76% of those in normal cells, were restored to 95% of normal levels by CD1-012 treatment (FIG. 13).

As to `N#CC(C#N)=NNc1cccc(Cl)c1` [CCCP, Carbonyl Cyanide 3-Chlorophenylhydrazone, reference compound], in data set [1], the mitochondrial membrane potential result was “significantly reduced”. Moreover, the “mitochondrial ROS levels” value in data set [2] is reported as “significantly increased”. The “mitophagy activation in PINK1 knockdown cell line (shPINK1) compared to control cell line (shNT)” value in data set [3] is given as “significantly decreased”.

For the molecule `Oc1cc2c(cc1O)-c1cc3ccc(O)c(O)c3c[n+]1CC2` [CD1-012, 2,3,9,10-Tetrahydroxy-5,6-dihydroisoquinolino [3,2-a]isoquinolin-7-iumbromide], in the data set with BEAS-2B cell line [4] (FACS, 15 μM 24 hours vs CCCP 10 μM), the “mitophagy activity compared with CCCP-treated sample (FIG. 1A)” value is given as “increased as significantly as”. In addition, in the data set with BEAS-2B cell line [4] (FIG. 5), the “concentration at which mitophagy activity reached a level comparable to the maximum of palmatine and berberine” value is listed as 10 UM; the “mitophagy-inducing activity relative to berberine” value is reported as “approximately 8 times”; the “mitophagy-inducing activity relative to palmatine” value is given as “approximately 40 times”. Further, the “concentration at which mitophagy activity began to significantly increase compared to untreated control” value with BEAS-2B cell line [4] (flow cytometer, FIG. 3A) was ≥ 7.5 µM. The “mitophagy-promoting effect compared with CCCP (confocal microscope)” value in the data set with BEAS-2B cell line [4] (15 μM 18 hours vs CCCP 10 μM, FIG. 4A) is recorded as “mitophagy-promoting effects similar to those observed in the CCCP-treated sample”. Moreover, the “mitophagy activity compared to the untreated control group (Con)” value in the data set on BEAS-2B cell line [4] (15 μM 24 hours (FACS), 15 μM 18 hours (confocal), 20 μM 24 hours (mito-YFP)) was “significant increase in mitophagy activity”. In the data set on BEAS-2B cell line [4] (15 μM, FIG. 3B), the “treatment time after which mitophagy activity began to significantly increase” value was 3 h and the “treatment time at which mitophagy activity reached its maximum level” value is 18 h. In addition, the “concentration dependence of mitophagy activity” value in the data set on BEAS-2B cell line [4] (up to the maximum treatment concentration of 17.5 μM) is given as “continued to increase in a concentration-dependent manner”. Besides, in the data set with SH-SYSY cell line, the “mitophagy activity compared to the control group (Con)” value is on record as “significantly increased mitophagy activity”. Further, the “mitophagy activity compared to the control group (Con)” value in the data set on HeLa-Parkin cell line is on record as “significantly increased mitophagy activity”. Further, the “autophagy activity compared to the untreated control group” value in the data set on BEAS-2B cell line [5] was “no significant difference in autophagy activity”. In [1], the mitochondrial membrane potential entry is “no decrease in mitochondrial membrane potential was observed”. The “mitochondrial ROS levels” value in data set [2] was “no increase in mitochondrial ROS was detected”. Besides, the “mitophagy activation in PINK1 knockdown cell line (shPINK1) compared to control cell line (shNT)” value in data set [3] is on record as “did not show a significant difference”. Moreover, the “concentration at which mitophagy activity in the MELAS cell line significantly increased (flow cytometry)” value with 143B MELAS cell line [6] (FIG. 9A) was ≥ 10 µM. Besides, in the data set with 143B MELAS cell line [6] (20 μM and 40 μM, FIG. 9B), the “mitophagy activity by confocal microscopy analysis” value is “increase in mitophagy activity”. For the same molecule, in the data set on 143B MELAS cell line [7], the “concentration at which the levels of SDHA and COX4 proteins decreased” value was ≥ 10 µM. In the data set with 143B MELAS cell line [8], the “ATP level relative to the normal cell line levels” value is reported as 90% and the “increase in ATP levels versus untreated MELAS cells” value is reported as 131%. In the data set on 143B MELAS cell line [8] (untreated MELAS cells 39.6 nM), this molecule came in with an ATP levels of 51.9 nM. In addition, in data set [9] (20 μM), the “mitochondrial protein levels (SDHA, SDHB) compared to the untreated control group” value is listed as “decrease in mitochondrial protein levels”. For the same molecule, the “mitochondrial protein expression (SDHA, SDHB) compared to the untreated control group” value in data set [9] (40 μM) was “more pronounced decrease in mitochondrial protein expression”. For the same molecule, the “ATP levels relative to normal cells” value in data set [10] was 95%.

Regarding `COc1ccc2cc3[n+](cc2c1OC)CCc1cc2c(cc1-3)OCO2` [berberine, Berberine, reference compound], in the data set on BEAS-2B cell line [4] (FIG. 5), the “concentration at which mitophagy activity reached its maximum” value was 80 µM.

As to `COc1cc2c(cc1OC)-c1cc3ccc(OC)c(OC)c3c[n+]1CC2` [palmatine, Palmatine, reference compound], in the data set on BEAS-2B cell line [4] (FIG. 5), the “concentration at which mitophagy activity reached its maximum” value came out at 400 µM.
